Measurements from patent US8034940B2, “Modulators of glucocorticoid receptor, AP-1, and/or NF-κB activity and use thereof” (Bristol-Myers Squibb Company, priority 2006, dated 2011).

Tested on: AP-1 induced transcriptional activity
Experiment: Cellular Transrepressional Assay (AP-1 luciferase reporter, PMA-activated A549 cells)
Assay type: cell-based
Conditions: for AP-1 Max % inh (Cellular Transrepression Assay) / Emax: maximum inhibition; for Emax: A549, 7 h, read-out: AP-1 Max % inh (Cellular Transrepression Assay)
Protocol: Cellular Transrepressional Assay
To measure the ability of test molecules to inhibit AP-1 induced transcriptional activity we utilized an A549 cell which was stably transfected with a plasmid containing 7× AP-1 DNA binding sites (pAP-1-Luc plasmid, Stratagene Co. La Jolla, Calif.) followed by the gene for luciferase. Cells were activated with 10 ng/ml of […] (PMA) plus or minus test molecules for 7 hours. After 7 hours a luciferase reagent was added to measure luciferase enzymatic activity in the cell. After a 10 minute incubation of luciferase reagent with cells, luminescence was measured in a TopCount luminescence counter. Repression of AP-1 activity was calculated as the percentage decrease in the signal induced by PMA alone. Test molecules were analyzed in the concentration range from 0.1 nM to 40 μM. EC50s were determined by using standard curve fitting methods such as Excel fit (Microsoft Co.).

[1] = Homo sapiens, Cellular Transrepression Assay
[2] = Homo sapiens, A549, Cellular Transrepression Assay

Compound	EC50 (Cellular Transrepression Assay) [nM]	AP-1 Max % inh (Cellular Transrepression Assay) (Cellular Transrepression Assay) [%]	Emax [1] [%]	EC50 [2] [nM]
CC(O)c1ccc(-c2ccc3c(n2)Oc2ccccc2C3C(C)(C)C(=O)Nc2nncs2)cc1 (mixture of isomers) [Example 239]	12.4	44.85		
CC(C)Oc1ccc(-c2ccc3c(n2)Oc2c(F)cccc2C3C(C)(C)C(=O)Nc2nncs2)cc1F (racemic) [Example 163]	16.8	49.60		
CN(C)C(=O)c1ccc(-c2ccc3c(n2)Oc2c(F)cccc2C3C(C)(C)C(=O)Nc2nncs2)cc1 (racemic) [Example 164]	5.58	57.26		
CN(C)C(=O)c1ccc(-c2ccc3c(n2)Oc2c(F)cccc2C3C(C)(C)C(=O)Nc2nncs2)cc1F (racemic) [Example 165]	25.6	56.92		
Cc1nnc(NC(=O)C(C)(C)C2c3ccc(-c4ccc(C(=O)N(C)C)c(F)c4)nc3Oc3c(F)cccc32)s1 (racemic) [Example 167]	36.6	57.94		
CN(C)C(=O)c1ccc(-c2ccc3c(n2)Oc2ccccc2[C@@H]3C2(C(=O)Nc3nncs3)CCC2)cc1 (single isomer, unassigned) [Example 480]			44	27
CN(C)C(=O)c1ccc(-c2ccc3c(n2)Oc2ccccc2[C@H]3C2(C(=O)Nc3nncs3)CCC2)cc1 (single isomer, unassigned) [Example 481]			33.8	579
O=C(CC1c2ccccc2Oc2ccccc21)Nc1nc(Cc2ccc(-c3ccncc3)cc2)cs1 [Example 1]			69.3	157
O=C(CC1c2ccccc2Oc2ccccc21)Nc1nc(-c2ccc(F)c3ccccc23)cs1 [Example 2]			42.7	
Cc1ccc(-c2csc(NC(=O)CC3c4ccccc4Oc4ccccc43)n2)c2ccccc12 [Example 3]			47.8	
O=C(CC1c2ccccc2Oc2ccccc21)Nc1nc(-c2cccc3ccccc23)cs1 [Example 4]			56.5	
CC(C)(C(=O)Nc1nc(Cc2ccc(-c3ccncc3)cc2)cs1)C1c2ccccc2Sc2ccccc21 [Example 5]			66	58.2
CC(C)(C(=O)Nc1nc(-c2cccc3ccccc23)cs1)C1c2ccccc2Sc2ccccc21 [Example 6]			67.9	461
Cc1ccc(-c2csc(NC(=O)C(C)(C)C3c4ccccc4Sc4ccccc43)n2)c2ccccc12 [Example 7]			64.9	303
CC(C)(C(=O)Nc1nc(-c2ccc(F)c3ccccc23)cs1)C1c2ccccc2Sc2ccccc21 [Example 8]			69	546
CC(C)(C(=O)Nc1nc(Cc2ccc(-c3ccncc3)cc2)cs1)C1c2ccccc2S(=O)(=O)c2ccccc21 [Example 10]			86.5	16.8
CC(C)(C(=O)Nc1nc(-c2ccc(F)c3ccccc23)cs1)C1c2ccccc2S(=O)(=O)c2ccccc21 [Example 11]			68.5	882
CC(C)(C(=O)Nc1nc(-c2cccc3ccccc23)cs1)C1c2ccccc2S(=O)(=O)c2ccccc21 [Example 12]			67.9	461
Cc1ccc(-c2csc(NC(=O)C(C)(C)C3c4ccccc4S(=O)(=O)c4ccccc43)n2)c2ccccc12 [Example 13]			60.3	566
CC(C)(C(=O)Nc1nc(-c2cccc3ccccc23)cs1)C1c2ccccc2Cc2ccccc21 [Example 15]			65.9	501
Cc1ccc(-c2csc(NC(=O)C(C)(C)C3c4ccccc4Cc4ccccc43)n2)c2ccccc12 [Example 16]			59.9	303
CC(C)(C(=O)Nc1nc(-c2ccc(F)c3ccccc23)cs1)C1c2ccccc2Cc2ccccc21 [Example 17]			68	335
CC(C)(C(=O)Nc1nccs1)C1c2ccccc2-c2ccccc21 [Example 18]			37.6	542

Compound	EC50 (Cellular Transrepression Assay) [nM]	AP-1 Max % inh (Cellular Transrepression Assay) (Cellular Transrepression Assay) [%]	Emax [1] [%]	EC50 [2] [nM]
CC(C)(C(=O)Nc1nc(-c2cccc3ccccc23)cs1)C1c2ccccc2-c2ccccc21 [Example 19]			52.7	
Cc1ccc(-c2csc(NC(=O)C(C)(C)C3c4ccccc4-c4ccccc43)n2)c2ccccc12 [Example 20]			46.9	473
CC(C)(C(=O)Nc1nc(-c2ccc(F)c3ccccc23)cs1)C1c2ccccc2-c2ccccc21 [Example 21]			60.8	
CC(C)(C(=O)Nc1nc(Cc2ccc(-c3ccncc3)cc2)cs1)C1c2ccccc2CCc2ccccc21 [Example 24]			78.8	15.7
O=C(CC1c2ccccc2Sc2ccccc21)Nc1nc(-c2ccc(F)c3ccccc23)cs1 [Example 26]			26.9	
Cc1ccc(-c2csc(NC(=O)CC3c4ccccc4Sc4ccccc43)n2)c2ccccc12 [Example 27]			15	
O=C(CC1c2ccccc2Sc2ccccc21)Nc1nc(-c2cccc3ccccc23)cs1 [Example 28]			43.7	
COc1ccc(NC(=O)c2cccc(-c3csc(NC(=O)C(C)(C)C4c5ccccc5Oc5ccccc54)n3)c2)cc1Cl [Example 29]			66.4	139
CC(C)(C(=O)Nc1nc(-c2cccc3ccccc23)cs1)C1c2ccccc2Oc2ccccc21 [Example 30]			67.2	338
Cc1ccc(-c2csc(NC(=O)C(C)(C)C3c4ccccc4Oc4ccccc43)n2)c2ccccc12 [Example 31]			69.4	179
CC(C)(C(=O)Nc1nc(-c2ccc(F)c3ccccc23)cs1)C1c2ccccc2Oc2ccccc21 [Example 32]			67.6	302
COc1ccc(Cc2csc(NC(=O)C(C)(C)C3c4ccccc4Oc4ccccc43)n2)cc1 [Example 33]			55.2	31.8
CC(C)(C(=O)Nc1nc(Cc2ccc(-c3ccncc3)cc2)cs1)C1c2ccccc2Oc2ccccc21 [Example 34]			71.8	3.52
CC(C)(C(=O)Nc1nc(Cc2ccc(Br)cc2)cs1)C1c2ccccc2Oc2ccccc21 [Example 35]			72.3	80.6
CC(C)(C(=O)Nc1nc(-c2ccc(F)c3ccccc23)c[nH]1)C1c2ccccc2Oc2ccccc21 [Example 38]			70.4	
CC(C)(C(=O)Nc1nc(-c2ccc(F)c3ccccc23)cs1)C1c2ccccc2Oc2ccc(C(F)(F)F)cc21 (stereo not shown) [Example 40]			47.8	461
CC(C)(C(=O)Nc1nc(Cc2ccc(-c3cn[nH]c3)cc2)cs1)C1c2ccccc2Oc2ccccc21 [Example 41]			73.8	5.82
Cn1cc(-c2ccc(Cc3csc(NC(=O)C(C)(C)C4c5ccccc5Oc5ccccc54)n3)cc2)cn1 [Example 42]			73.4	3.7
Cc1noc(C)c1-c1ccc(Cc2csc(NC(=O)C(C)(C)C3c4ccccc4Oc4ccccc43)n2)cc1 [Example 43]			71.9	13.4
CC(C)(C(=O)Nc1nc(C(=O)c2ccccc2)cs1)C1c2ccccc2Oc2ccccc21 [Example 44]			69.3	
COc1ccc2c(c1)Oc1ccccc1C2C(C)(C)C(=O)Nc1nc(-c2ccc(F)c3ccccc23)cs1 (stereo not shown) [Example 45]			71.5	102
COc1ccc2c(c1)Oc1ccccc1C2C(C)(C)C(=O)Nc1nc(-c2ccc(C)c3ccccc23)cs1 (stereo not shown) [Example 46]			67.6	90.2
COc1ccc(Cc2csc(NC(=O)C(C)(C)C3c4ccccc4Oc4cc(OC)ccc43)n2)cc1 (stereo not shown) [Example 49]			68.8	40.3
